Source: ChEMBL document CHEMBL1157866, “Evaluation of anti-pigmentary effect of synthetic sulfonylamino chalcone” (Eur J Med Chem, 2010)
Active and inactive are the calls of the source. No cut-off for these calls is given here.

What was measured:
Tyrosinase [1] = target: T1, Tyrosinase (Agaricus bisporus, UniProt O42713); assay: Competitive inhibition of monophenolase activity of mushroom tyrosinase using as L-tyrosine substrate by Lineweaver-Burke plot analysis
T1 sequence (O42713 whole entry): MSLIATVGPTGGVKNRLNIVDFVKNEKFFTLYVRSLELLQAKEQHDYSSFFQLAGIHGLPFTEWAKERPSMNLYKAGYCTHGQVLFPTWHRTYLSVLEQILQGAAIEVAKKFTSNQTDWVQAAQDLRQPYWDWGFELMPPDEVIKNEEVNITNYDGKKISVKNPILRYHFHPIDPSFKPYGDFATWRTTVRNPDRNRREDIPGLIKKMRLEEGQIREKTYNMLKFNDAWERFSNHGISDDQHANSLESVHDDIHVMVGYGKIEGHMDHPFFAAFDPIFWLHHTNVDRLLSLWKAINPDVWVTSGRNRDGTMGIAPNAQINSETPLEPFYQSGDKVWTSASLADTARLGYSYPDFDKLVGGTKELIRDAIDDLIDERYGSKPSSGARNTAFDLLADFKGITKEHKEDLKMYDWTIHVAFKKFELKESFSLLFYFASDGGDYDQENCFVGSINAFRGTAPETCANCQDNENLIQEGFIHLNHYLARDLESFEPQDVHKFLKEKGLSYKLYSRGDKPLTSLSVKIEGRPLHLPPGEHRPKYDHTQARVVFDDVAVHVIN

[2] = target: T2, Tyrosinase (Agaricus bisporus) (UniProt O42713); assay: (§1) Inhibition of monophenolase activity of mushroom tyrosinase using as L-tyrosine substrate by spectrophotometric analysis
T2 sequence (whole entry): T1 sequence (O42713 whole entry)

Tyrosinase [3] = target: T1, Tyrosinase; assay: as §1
B16 [4] = assay: cells; settings: Mus musculus, B16, 48 h
B16 [5] = assay: Reduction of alpha-MSH-induced tyrosinase expression in mouse B16 cells after 2 days by Western blot analysis; assay type: functional, cell-based
B16 [6] = assay: Reduction of alpha-MSH-induced tyrosinase related protein 2 expression in mouse B16 cells after 2 days by Western blot analysis; assay type: functional, cell-based
Cavia porcellus [7] = assay: Reduction of pigmentation in UV-induced hyperpigmentation brown guinea pig model at 0.3% applied topically bid for 4 weeks; assay type: functional, organism-based
B16 [8] = assay: Inhibition of alpha-MSH-induced melanin production in mouse B16 cells assessed as reduction pigmentation at 20 uM after 48 hrs; assay type: functional, cell-based
[9] = Cytotoxicity against mouse B16 cells at 30 uM after 72 hrs by MTT assay; assay type: cell-based; settings: read-out: Survival
B16 [10] = assay: Inhibition of alpha-MSH-induced melanin production in mouse B16 cells after 48 hrs
B16 [11] = assay: Cytotoxicity against mouse B16 cells up to 30 uM after 48 hrs by MTT assay; assay type: cell-based; settings: b16, 48 h
Cavia porcellus [12] = assay: Toxicity in UV-induced hyperpigmentation brown guinea pig model at 0.3% applied topically bid for 4 weeks; assay type: organism-based; settings: in vivo, topical_or_ocular, 672 h
[13] = Cytotoxicity against mouse B16 cells at 10 uM after 72 hrs by MTT assay; assay type: cell-based; settings: read-out: Survival
B16 [14] = assay: Reduction of alpha-MSH-induced microphthalmia-associated transcription factor expression in mouse B16 cells after 2 days by Western blot analysis; assay type: functional, cell-based
B16 [15] = assay: Inhibition of melanin production in mouse B16 cells after 48 hrs; assay type: functional, cell-based
B16 [16] = assay: Reduction of alpha-MSH-induced tyrosinase related protein 1 expression in mouse B16 cells after 2 days by Western blot analysis; assay type: functional, cell-based
[17] = Cytotoxicity against mouse B16 cells at 20 uM after 72 hrs by MTT assay; assay type: cell-based; settings: read-out: Survival

Row | Ki (Tyrosinase [1]) [µM] | Activity [2] | IC50 (Tyrosinase [3]) [µM] | IC50 (B16 [4]) [µM] | SMILES | Activity (B16 [8]) | other results
1 | 25.2 | Dose-dependent effect | 58.8 | 32.1 | O=C(/C=C/c1ccc(O)cc1)c1ccc(NS(=O)(=O)c2ccc(O)cc2)cc1 |  | 
2 | 2.9 |  | 4.8 | 48.7 | O=C(/C=C/c1ccc(O)cc1)c1ccc(O)cc1 [4,4'-DIHYDROXYCHALCONE] | Active | 
3 | 3.9 |  | 8.3 | 28.1 | Nc1ccc(C(=O)/C=C/c2ccc(O)cc2)cc1 | Active | 

Further lines, the molecule ahead of its results:

Row | SMILES | Ki (Tyrosinase [1]) [µM] | Activity [2] | IC50 (Tyrosinase [3]) [µM] | IC50 (B16 [4]) [µM] | Activity (B16 [8]) | other results
4 | O=C(/C=C/c1ccc(O)cc1)c1ccc(NS(=O)(=O)c2ccc([N+](=O)[O-])cc2)cc1 | 11.4 | Dose-dependent effect | 15.2 |  |  | 
5 | Cc1ccc(S(=O)(=O)Nc2ccc(C(=O)/C=C/c3ccc(O)cc3)cc2)cc1 | 12.6 | Dose-dependent effect | 23.3 | 10.4 | Active | Activity (B16 [5]): Active; Activity (B16 [6]): Active; Activity (Cavia porcellus [7]): Active; viability at 72 h, 30 µM [9]: 78%; Activity (B16 [10]): Dose-dependent effect; Activity (B16 [11]): Non-toxic; Activity (Cavia porcellus [12]): Non-toxic; viability at 72 h, 10 µM [13]: 92%; Activity (B16 [14]): Active; Activity (B16 [15]): Active; Activity (B16 [16]): Active; viability at 72 h, 20 µM [17]: 84%
6 | Nc1ccc(S(=O)(=O)Nc2ccc(C(=O)/C=C/c3ccc(O)cc3)cc2)cc1 | 16.7 | Dose-dependent effect | 30.7 | 21.2 |  | 
7 | O=C(/C=C/c1ccc(O)cc1)c1ccc(NS(=O)(=O)c2ccc(F)cc2)cc1 | 14.9 | Dose-dependent effect | 29.1 | 19.8 |  | 
8 | O=C(/C=C/c1ccc(O)cc1)c1ccc(NS(=O)(=O)c2ccccc2)cc1 | 13.3 | Dose-dependent effect | 22.5 | 24.2 |  | 
